Laboratory results from paper PMC4341984 (Biochemistry, 2014).

Target: T1, UPPSBf (undecaprenyl pyrophosphate synthase) (Bacteroides fragilis, UniProt Q5LI17)
T1 sequence (Q5LI17 1-244): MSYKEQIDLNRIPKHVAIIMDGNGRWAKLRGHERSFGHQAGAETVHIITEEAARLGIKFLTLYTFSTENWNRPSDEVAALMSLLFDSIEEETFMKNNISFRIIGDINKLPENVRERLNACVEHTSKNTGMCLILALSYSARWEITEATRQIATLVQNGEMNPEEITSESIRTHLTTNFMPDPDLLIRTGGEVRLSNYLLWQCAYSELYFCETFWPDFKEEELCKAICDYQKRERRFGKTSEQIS
Assay: fluorescence plate assay, inhibition of […] 2AA-GPP elongation
Format: biochemical

IC50: 1000 ± 200 µM
Structure (SMILES): O=P(O)(O)OP(=O)(O)O [diphosphate]
